Legend:
[1] = Formaldehyde (formalin) removing ability test (GC); conditions: 2.0% formaldehyde solution, 3 molar equivalents of compound, room temperature; for Formaldehyde GC Area, 30 min: after 30 min; for Formaldehyde GC Area, 180 min: after 180 min; for Formaldehyde GC Area, Initial: initial state
[2] = Heavy metal removal ability test in contaminated soil (ICP-MS), arsenic; conditions: for Arsenic (As) Adsorption amount: contaminated soil; for Arsenic (As) Adsorption rate: relative to EDTA control
Method: (§1) (1) Preparation of Soil Contaminated with Heavy Metal
(§2) After collecting and pulverizing uncontaminated soil, fine particles obtained by using a mesh were mixed with the aqueous heavy metal solution to prepare soil samples contaminated with heavy metals.
(§3) Each 3 ml of the prepared aqueous solution was added to a soil sample contaminated with heavy metals and mixed for 5 minutes.
(§4) 50 ml of distilled water was added to the contaminated soil mixed with the aqueous solution for restoring soil, stirred for 20 minutes, and settled for 1 hour, and a supernatant was prepared as a sample solution.
(§5) The prepared sample solution was analyzed for the heavy metal component using an Inductively Coupled Plasma Mass Spectrometer (ICP-MS) (Xseries™ 2, Thermo Fisher Scientific, UK).
(§6) Adsorption rate of heavy metals (%)=(Adsorption amount of Embodiment/Adsorption amount of Control)×100 Equation 1

[3] = Heavy metal removal ability test in contaminated soil around a factory (WAK-Me test kit); conditions: 1.0 wt % aqueous solution, colour comparison test kit
Method: The contaminated soil around the factory in the industrial complex was collected, pulverized, and meshed to prepare fine particles of soil samples.
Each 3 ml of aqueous solutions for restoring soil was added to soil samples and mixed for 5 minutes.

[4] = Heavy metal removal ability test in contaminated soil (ICP-MS), nickel; conditions: for Nickel (Ni) Adsorption amount: contaminated soil; for Nickel (Ni) Adsorption rate: relative to EDTA control
Method: as §1, §2, §3, §4, §5, §6

[5] = Heavy metal removal ability test in contaminated soil (ICP-MS), cadmium; conditions: for Cadmium (Cd) Adsorption amount: contaminated soil; for Cadmium (Cd) Adsorption rate: relative to EDTA control
Method: as §1, §2, §3, §4, §5, §6

human skin = experiment: Skin irritation test of active ingredient (patch method, CTFA guidelines); format: in vivo; conditions: 24 h patch; for Test result (number of subject) (+) / Test result (number of subject) (++) / Test result (number of subject) (±) / Test result (number of subject) (−): 20 people; for Test result (number of subject) (+): (+) apparent reddening; for Test result (number of subject) (++): (++) more reddened and swollen; for Test result (number of subject) (±): (±) slightly reddish; for Test result (number of subject) (−): (−) no erythema
Method: A filter paper disk was placed in an 8 mm diameter, 10 panels of pin chamber.
After 24 hours, the pin chamber was removed, and skin conditions were visually observed. The degree and grade for skin irritation were calculated according to the following Equation 2, and the results are shown in Table 4 below.
[Criteria for Skin Irritation]
(−): No erythema or particularly no symptoms; (±): slightly reddish than the periphery; (+): Apparent reddening than periphery; (++): More reddened and swollen than periphery.
[Grade for Skin Irritation]
Degree of irritation 0-0.1: Grade I (unstimulated);
Degree of irritation 0.11-0.3: Grade II (weakly stimulated);
Degree of irritation 0.31-0.5: Grade III (moderately stimulated);
Degree of irritation 0.51 or more: Grade IV (strongly stimulated)

With O=C(O)c1ccc(N2CCN(c3ccc(C(=O)O)o3)CCN(c3ccc(C(=O)O)o3)CCN(c3ccc(C(=O)O)o3)CC2)o1 [Embodiment 8, 5,5′,5″,5′″-(1,4,7,10-tetraazacyclododecane-1,4,7,10-tetrayl)tetrakis(furan-2-carboxylic Acid)] the “Formaldehyde GC Area, 30 min” value [1] was 0.168 mAU*min, the “Formaldehyde GC Area, 180 min” value [1] was 0 mAU*min and the “Formaldehyde GC Area, Initial” value [1] was 0.305 mAU*min. The “Arsenic (As) Adsorption amount” value ([2]; content 0.5% aqueous solution) was 39 ppm, the “Arsenic (As) Adsorption rate” value ([2]; content 0.5%) was 156% and the “Arsenic (As) Adsorption amount” value ([2]; content 1.0% aqueous solution) was 47 ppm. The “Arsenic (As) Adsorption rate” value ([2]; content 1.0%) was 188%, the “Arsenic (As) Adsorption amount” value ([2]; content 2.0% aqueous solution) was 49 ppm and the “Arsenic (As) Adsorption rate” value ([2]; content 2.0%) was 196%. For the same compound, the “Total amount (Cu, Zn, Mn, Ni, Cd)” value [3] was at most 5 ppm, the “Nickel (Ni) Adsorption amount” value ([4]; content 0.5% aqueous solution) was 86 ppm and the “Nickel (Ni) Adsorption rate” value ([4]; content 0.5%) was 176%. The “Nickel (Ni) Adsorption amount” value ([4]; content 1.0% aqueous solution) was 96 ppm, the “Nickel (Ni) Adsorption rate” value ([4]; content 1.0%) was 196% and the “Nickel (Ni) Adsorption amount” value ([4]; content 2.0% aqueous solution) was 99 ppm. For the same compound, the “Nickel (Ni) Adsorption rate” value ([4]; content 2.0%) was 202%, the “Cadmium (Cd) Adsorption amount” value ([5]; content 0.5% aqueous solution) was 61 ppm and the “Cadmium (Cd) Adsorption rate” value ([5]; content 0.5%) was 149%. The “Cadmium (Cd) Adsorption amount” value ([5]; content 1.0% aqueous solution) was 64 ppm, the “Cadmium (Cd) Adsorption rate” value ([5]; content 1.0%) was 156% and the “Cadmium (Cd) Adsorption amount” value ([5]; content 2.0% aqueous solution) was 71 ppm. For the same compound, the “Cadmium (Cd) Adsorption rate” value ([5]; content 2.0%) was 173%, the “Test result (number of subject) (+)” value (human skin; content 0.1 wt %) was 0 and the “Test result (number of subject) (++)” value (human skin; content 0.1 wt %) was 0. For the same compound, the “Test result (number of subject) (±)” value (human skin; content 0.1 wt %) was 0, the “Test result (number of subject) (−)” value (human skin; content 0.1 wt %) was 20 and the Degree of irritation (human skin; content 0.1 wt %) was 0. For the same compound, the “Grade for skin irritation” value (human skin; content 0.1 wt %) was “I (Degree of irritation 0-0.1: Grade I (unstimulated))”, the “Test result (number of subject) (+)” value (human skin; content 0.5 wt %) was 0 and the “Test result (number of subject) (++)” value (human skin; content 0.5 wt %) was 0. The “Test result (number of subject) (±)” value (human skin; content 0.5 wt %) was 0, the “Test result (number of subject) (−)” value (human skin; content 0.5 wt %) was 20 and the Degree of irritation (human skin; content 0.5 wt %) was 0. For the same compound, the “Grade for skin irritation” value (human skin; content 0.5 wt %) was “I (Degree of irritation 0-0.1: Grade I (unstimulated))”, the “Test result (number of subject) (+)” value (human skin; content 1.0 wt %) was 0 and the “Test result (number of subject) (++)” value (human skin; content 1.0 wt %) was 0. The “Test result (number of subject) (±)” value (human skin; content 1.0 wt %) was 2, the “Test result (number of subject) (−)” value (human skin; content 1.0 wt %) was 18 and the Degree of irritation (human skin; content 1.0 wt %) was 0.10. For the same compound, the “Grade for skin irritation” value (human skin; content 1.0 wt %) was “I (Degree of irritation 0-0.1: Grade I (unstimulated))”.

In the case of O=C(O)CN(CCN(CCN(CC(=O)O)CC(=O)O)CC(=O)O)CCN(CC(=O)O)CC(=O)O [Embodiment 1, 3,6,9,12-tetrakis(carboxymethyl)-3,6,9,12-tetraazatetradecanedioic Acid], the “Formaldehyde GC Area, 30 min” value [1] is reported as 0.170 mAU*min, the “Formaldehyde GC Area, 180 min” value [1] is reported as 0 mAU*min and the “Formaldehyde GC Area, Initial” value [1] is reported as 0.305 mAU*min. For the same compound, the “Arsenic (As) Adsorption amount” value ([2]; content 0.5% aqueous solution) was 48 ppm, the “Arsenic (As) Adsorption rate” value ([2]; content 0.5%) was 192% and the “Arsenic (As) Adsorption amount” value ([2]; content 1.0% aqueous solution) was 50 ppm. For the same compound, the “Arsenic (As) Adsorption rate” value ([2]; content 1.0%) was 200%, the “Arsenic (As) Adsorption amount” value ([2]; content 2.0% aqueous solution) was 53 ppm and the “Arsenic (As) Adsorption rate” value ([2]; content 2.0%) was 212%. The “Total amount (Cu, Zn, Mn, Ni, Cd)” value [3] was at most 5 ppm, the “Nickel (Ni) Adsorption amount” value ([4]; content 0.5% aqueous solution) was 91 ppm and the “Nickel (Ni) Adsorption rate” value ([4]; content 0.5%) was 186%. For the same compound, the “Nickel (Ni) Adsorption amount” value ([4]; content 1.0% aqueous solution) was 101 ppm, the “Nickel (Ni) Adsorption rate” value ([4]; content 1.0%) was 206% and the “Nickel (Ni) Adsorption amount” value ([4]; content 2.0% aqueous solution) was 112 ppm. For the same compound, the “Nickel (Ni) Adsorption rate” value ([4]; content 2.0%) was 229%, the “Cadmium (Cd) Adsorption amount” value ([5]; content 0.5% aqueous solution) was 74 ppm and the “Cadmium (Cd) Adsorption rate” value ([5]; content 0.5%) was 180%. For the same compound, the “Cadmium (Cd) Adsorption amount” value ([5]; content 1.0% aqueous solution) was 79 ppm, the “Cadmium (Cd) Adsorption rate” value ([5]; content 1.0%) was 193% and the “Cadmium (Cd) Adsorption amount” value ([5]; content 2.0% aqueous solution) was 84 ppm. For the same compound, the “Cadmium (Cd) Adsorption rate” value ([5]; content 2.0%) was 205%, the “Test result (number of subject) (+)” value (human skin; content 0.1 wt %) was 0 and the “Test result (number of subject) (++)” value (human skin; content 0.1 wt %) was 0. For the same compound, the “Test result (number of subject) (±)” value (human skin; content 0.1 wt %) was 0, the “Test result (number of subject) (−)” value (human skin; content 0.1 wt %) was 20 and the Degree of irritation (human skin; content 0.1 wt %) was 0. For the same compound, the “Grade for skin irritation” value (human skin; content 0.1 wt %) was “I (Degree of irritation 0-0.1: Grade I (unstimulated))”, the “Test result (number of subject) (+)” value (human skin; content 0.5 wt %) was 0 and the “Test result (number of subject) (++)” value (human skin; content 0.5 wt %) was 0. For the same compound, the “Test result (number of subject) (±)” value (human skin; content 0.5 wt %) was 1, the “Test result (number of subject) (−)” value (human skin; content 0.5 wt %) was 19 and the Degree of irritation (human skin; content 0.5 wt %) was 0.05. For the same compound, the “Grade for skin irritation” value (human skin; content 0.5 wt %) was “I (Degree of irritation 0-0.1: Grade I (unstimulated))”, the “Test result (number of subject) (+)” value (human skin; content 1.0 wt %) was 0 and the “Test result (number of subject) (++)” value (human skin; content 1.0 wt %) was 0. The “Test result (number of subject) (±)” value (human skin; content 1.0 wt %) was 4, the “Test result (number of subject) (−)” value (human skin; content 1.0 wt %) was 16 and the Degree of irritation (human skin; content 1.0 wt %) was 0.20. For the same compound, the “Grade for skin irritation” value (human skin; content 1.0 wt %) was “II (Degree of irritation 0.11-0.3: Grade II (weakly stimulated))”.

For O=C(O)c1ccc(N2CCN(c3ccc(C(=O)O)cc3)CCN(c3ccc(C(=O)O)cc3)CCN(c3ccc(C(=O)O)cc3)CC2)cc1 [Embodiment 6, 4,4′,4″,4′″-(1,4,7,10-tetraazacyclododecane-1,4,7,10-tetrayl)tetrabenzoic Acid], the “Formaldehyde GC Area, 30 min” value [1] was 0.183 mAU*min, the “Formaldehyde GC Area, 180 min” value [1] was 0 mAU*min and the “Formaldehyde GC Area, Initial” value [1] was 0.305 mAU*min. For the same compound, the “Arsenic (As) Adsorption amount” value ([2]; content 0.5% aqueous solution) was 42 ppm, the “Arsenic (As) Adsorption rate” value ([2]; content 0.5%) was 168% and the “Arsenic (As) Adsorption amount” value ([2]; content 1.0% aqueous solution) was 45 ppm. The “Arsenic (As) Adsorption rate” value ([2]; content 1.0%) was 180%, the “Arsenic (As) Adsorption amount” value ([2]; content 2.0% aqueous solution) was 48 ppm and the “Arsenic (As) Adsorption rate” value ([2]; content 2.0%) was 192%. The “Total amount (Cu, Zn, Mn, Ni, Cd)” value [3] was at most 5 ppm, the “Nickel (Ni) Adsorption amount” value ([4]; content 0.5% aqueous solution) was 81 ppm and the “Nickel (Ni) Adsorption rate” value ([4]; content 0.5%) was 165%. The “Nickel (Ni) Adsorption amount” value ([4]; content 1.0% aqueous solution) was 83 ppm, the “Nickel (Ni) Adsorption rate” value ([4]; content 1.0%) was 169% and the “Nickel (Ni) Adsorption amount” value ([4]; content 2.0% aqueous solution) was 87 ppm. For the same compound, the “Nickel (Ni) Adsorption rate” value ([4]; content 2.0%) was 178%, the “Cadmium (Cd) Adsorption amount” value ([5]; content 0.5% aqueous solution) was 61 ppm and the “Cadmium (Cd) Adsorption rate” value ([5]; content 0.5%) was 149%. For the same compound, the “Cadmium (Cd) Adsorption amount” value ([5]; content 1.0% aqueous solution) was 69 ppm, the “Cadmium (Cd) Adsorption rate” value ([5]; content 1.0%) was 168% and the “Cadmium (Cd) Adsorption amount” value ([5]; content 2.0% aqueous solution) was 77 ppm. The “Cadmium (Cd) Adsorption rate” value ([5]; content 2.0%) was 188%, the “Test result (number of subject) (+)” value (human skin; content 0.1 wt %) was 0 and the “Test result (number of subject) (++)” value (human skin; content 0.1 wt %) was 0. The “Test result (number of subject) (±)” value (human skin; content 0.1 wt %) was 0, the “Test result (number of subject) (−)” value (human skin; content 0.1 wt %) was 20 and the Degree of irritation (human skin; content 0.1 wt %) was 0. For the same compound, the “Grade for skin irritation” value (human skin; content 0.1 wt %) was “I (Degree of irritation 0-0.1: Grade I (unstimulated))”, the “Test result (number of subject) (+)” value (human skin; content 0.5 wt %) was 0 and the “Test result (number of subject) (++)” value (human skin; content 0.5 wt %) was 0. For the same compound, the “Test result (number of subject) (±)” value (human skin; content 0.5 wt %) was 0, the “Test result (number of subject) (−)” value (human skin; content 0.5 wt %) was 20 and the Degree of irritation (human skin; content 0.5 wt %) was 0. The “Grade for skin irritation” value (human skin; content 0.5 wt %) was “I (Degree of irritation 0-0.1: Grade I (unstimulated))”, the “Test result (number of subject) (+)” value (human skin; content 1.0 wt %) was 0 and the “Test result (number of subject) (++)” value (human skin; content 1.0 wt %) was 0. The “Test result (number of subject) (±)” value (human skin; content 1.0 wt %) was 1, the “Test result (number of subject) (−)” value (human skin; content 1.0 wt %) was 19 and the Degree of irritation (human skin; content 1.0 wt %) was 0.05. For the same compound, the “Grade for skin irritation” value (human skin; content 1.0 wt %) was “I (Degree of irritation 0-0.1: Grade I (unstimulated))”.

Reference: patent publication US20210207064A1, “COMPOUND FOR RESTORING CONTAMINATED SOIL OR CONTAMINATED WATER” (FNG RESEARCH CO., LTD., priority 2018, published 2021)
